In patent publication US8071548B2, “Method of reducing injury to mammalian cells” (Nono, Inc., priority 2002, dated 2011):

Tests used:
traumatic brain injury = assay: Lateral fluid percussion injury model of TBI; assay type: in vivo, Sprague-Dawley rats; conditions: analyzed 24 h after injury
Description: Adult male Sprague-Dawley rats weighing approximately 350 g were ordered from Charles River and anesthesia was induced using a gaseous mixture of 1:2 oxygen:nitrous oxide with 2% halothane. The halothane level was reduced to 1% during surgical manipulations and weights were recorded prior to preparatory surgery. The preparatory surgery for these experiments included the cannulation of the left femoral vein and a 5 mm diameter craniotomy. The venous cannula is sealed and tucked inside the animal whereupon the wound is sutured. The center of the craniotomy lies about 2.5 mm to the right of the sagittal suture, between the bregma and lambda. A modified Leur-loc is attached to the perimeter of the craniotomy with superglue (FIG. 28).
Dental acrylic (GC America Inc, Alsip, Ill.) is applied around the modified Leur-loc to seal it into place. A small piece of gelfoam is placed into the opening and the skin is sutured over the entire setup. The animal is then returned to its cage. The following day, the animal is re-anesthetized, weighed, and its wound is re-opened. The gelfoam is removed and the animal is attached to the fluid percussion device via the modified Leur-loc. At this time, the animal is given a ˜20 ms saline injection at approximately 2.4 atmospheres (350 mV on the oscilloscope) using the fluid percussion injury device (Custom Design & Fabrication, Richmond, Va.) (FIG. 29).
On occasion, the animal ceases spontaneous breathing following the injury and 1-2 chest compressions are required for resuscitation. The modified Leur-loc along with the dental acrylic is removed en bloc immediately following the injury. The animal is placed on 100% oxygen while its wound is cleaned and resealed with Vetbond tissue adhesive (3M Worldwide, Maplewood, Minn.). The rat's body temperature during the recovery time is maintained at 37° C. with a homeothermic warming blanket (Harvard Bioscience Inc, Holliston, Mass.). The amount of time necessary for the righting reflex to return is recorded and the animal is placed back into its cage. At 3 h post-injury, the animal is re-anesthetized and weighed again. The wound overlying the femoral cannula is opened and the cannula is cleaned out using heparinized saline. […] The cannula is sealed, tucked again into the animal, and the wound is re-sutured. At 24 h post-injury, the animal is re-anesthetized and weighed again. The rat is transcardially perfused using heparinized saline to clean out the cardiovascular system, followed by a 4% formalin fixative solution. The rat is decapitated and left in the fixative solution overnight. The brain is extracted the following day and processed. The volume of damaged brain (FIG. 26, right graph) is assessed according to the same methods as described in Aarts et al., 2002, for assessing stroke volumes. […]

CA1 neurons = assay: Electrophysiological recordings in acute hippocampal slices (CA1 neurons); design: species or system rat; conditions: 50 nM bath-applied
Description: Electrophysiological Recordings were made in […] hippocampal slices from 20-36 day old Sprague-Dawley rats perfused at room temperature with ACSF containing (in mM) 126 NaCl, 3 KCl, 2 MgCl2, 2 CaCl2, 1.2 KH2PO4, 26 NaHCO3 and 10 glucose and bubbled with 95% O2/5% CO2. Whole-cell recordings of CA1 neurons were performed using the “blind” method with an Axopatch-1D amplifier (Axon Instruments, Foster City, Calif.) at holding potential −60 mV. Pipettes (4-5 MΩ) were filled with solution containing (mM): 135 CsCl, 2 MgCl2, 0.1 CaCl2, 0.5 EGTA, 10 HEPES, 4 Mg-ATP, 0.2 GTP, and 5 QX-314, pH 7.4, 310 mOsm. Field potentials were recorded with glass micropipettes (2-4 MΩ) filled with ACSF placed in the stratum radiatum […] from the cell body layer. Synaptic responses were evoked by stimulation (0.05 ms) of the Schaffer collateral-commissural pathway with a bipolar tungsten electrode in the presence of bicuculline methiodide (10 μM). For INMDA recording, Mg^2+ was removed from and 20 μM CNQX was added in ACSF. Following 10-20 min base line recordings of EPSCs, INMDA and fEPSPs, Tat-peptides were applied in ACSF and recordings were continued for 30 min thereafter.

reactive oxygen species = assay: ROS production (DHR fluorescence); assay type: cell-based, mouse
Description: The production of reactive oxygen species (ROS) was measured with DHR. In brief, DHR is oxidized to a fluorescent rhodamine-123 (Royall and Ischiropoulos, 1993), and the consequent rise in fluorescence may be used as an indicator of ROS production.
ROS were measured as previously described (Tymianski et al., 1998; Aarts et al., 2003). In brief, cultures were pre-loaded for 30 min with 5 μM DHR and subjected to the experimental insult. DHR fluorescence was measured in a multiwell plate fluorescence scanner (Cytofluor II, PerSeptive Biosytems, Framingham, Mass., USA; 485 nm excitation, 530 emission). DHR fluorescence was normalized to baseline using the formula at (Ft−Fo)/F0; Where Ft=DHR fluorescence at time t, Fo=DHR fluorescence at time zero. DHR fluorescence images were also acquired using a microscope (465-495 nm excitation and 515-555 nm emission) as described above for TMRM.

[1] = tested on: cultured cortical neurons; assay: NMDA excitotoxicity in cultured cortical neurons (propidium iodide fluorescence); assay type: cell-based, mouse
[2] = Baseline behaviours after single i.v. injection; assay type: in vivo, Sprague-Dawley rats; conditions: over 4 hours, 0.5-50 nmols/g
[3] = Physiological variables in post-treatment MCAO study; assay type: in vivo, Sprague-Dawley rats
Description: Next, I examined whether treatment with Tat-NR2B9c could attenuate ischemic neuronal damage in-vivo when given after stroke onset. […] Infarction volume and neurological outcome measurements were performed at times identical to the pre-treatment study. Body temperature, blood pressure and blood gases were monitored throughout the 24 h experiment and maintained equivalent between groups (Table 2).

[4] = tested on: transient middle cerebral artery occlusion; assay: Transient MCAO, dose study of infarct size; assay type: in vivo, Sprague-Dawley rats

## Tat-KLSSIESDV [Tat-NR2B9c]
Traumatic brain injury; 3 hours after TBI
  total volume of injured brain: significantly reduced
Traumatic brain injury; via femoral cannula 3 hours after TBI
  fraction of dead cells in cerebral cortex and hippocampus ipsilateral to the injury: markedly reduced fraction of dead cells
CA1 neurons
  synaptic responses, total EPSC and AMPA or NMDA components of the EPSC in CA1 neurons: had no effect
Reactive oxygen species; 50 nM pretreatment
  ROS production by stretch alone: has no effect
Reactive oxygen species; 50 nM pretreatment 30 min, stretched and unstretched cultures
  NMDA-evoked ROS production (DHR oxidation): reduced NMDA-evoked ROS production
[1]; 50 nM applied after 1 h NMDA challenge (0-100 μM), cell death at 20 h
  vulnerability of neurons to NMDA toxicity, post-treatment: significantly reduced
[1]; 50 nM for 1 h, then NMDA 0-100 μM 1 h, 20 h observation
  NMDA-evoked cell death, pre-treatment: significantly reduced
[2]
  changes in sensory-motor, open field, or exploratory behaviour: No significant changes
[3]; After MCAo (15 min)
  Body Temperature: 36.8 ± 0.08 °C
  MABP: 119 ± 4 mmHg
[3]; After MCAo (24 hr)
  Body Temperature: 36.4 ± 0.24 °C
  Body weight: 279 ± 8 g
[3]; Before MCAo(15 min)
  Blood gases PCO2: 40.1 ± 1.0 mmHg
  Blood gases PH: 7.43 ± 0.02
  Blood gases PO2: 105 ± 4 mmHg
  Body Temperature: 36.6 ± 0.07 °C
  MABP: 103 ± 5 mmHg
[3]; Before anesthesia
  Body weight: 306 ± 7 g
[3]; During MCAo (15 min)
  Blood gases PCO2: 39.8 ± 0.9 mmHg
  Blood gases PH: 7.43 ± 0.01
  Blood gases PO2: 111 ± 4 mmHg
  Body Temperature: 37.0 ± 0.07 °C
  MABP: 119 ± 8 mmHg
[3]; During MCAo (60 min)
  Body Temperature: 36.7 ± 0.11 °C
  MABP: 143 ± 5 mmHg
[3]; During MCAo (65 min)
  Body Temperature: 36.9 ± 0.08 °C
  MABP: 137 ± 4 mmHg
[4]; 0.03 nmole/g, 3 h after stroke onset
  efficacy of the lowest dose versus higher doses: equally effective
[4]; 0.03, 0.3, 1 or 3 nmoles/g i.v. 3 h after stroke onset, measured 24 h after MCAO onset
  infarct size versus control dose: significant reduction in infarct size
